Data taken from article PMC9851200, “Multiparameter phenotypic screening for endogenous TFEB and TFE3 translocation identifies novel chemical series modulating lysosome function” (Autophagy, 2022).
Like-named read-outs stand apart in the source and are kept apart here.

Key:
Type in all cases: binding
[1] = target: kinases (KINOMEscan panel) (Homo sapiens, UniProt P29317); settings: EPHA2; NEW KINOMEscan
[2] = target: kinases (KINOMEscan panel) (Homo sapiens, UniProt P00519, T315I); settings: NEW KINOMEscan; for KINOMEscan ABL1(T315I)-nonphosphorylated: kinase ABL1(T315I)-nonphosphorylated; for KINOMEscan ABL1(T315I)-phosphorylated: kinase ABL1(T315I)-phosphorylated
[3] = target: T1, kinases (KINOMEscan panel) (Homo sapiens, UniProt P43403); settings: NEW KINOMEscan
T1 sequence (P43403 1-619): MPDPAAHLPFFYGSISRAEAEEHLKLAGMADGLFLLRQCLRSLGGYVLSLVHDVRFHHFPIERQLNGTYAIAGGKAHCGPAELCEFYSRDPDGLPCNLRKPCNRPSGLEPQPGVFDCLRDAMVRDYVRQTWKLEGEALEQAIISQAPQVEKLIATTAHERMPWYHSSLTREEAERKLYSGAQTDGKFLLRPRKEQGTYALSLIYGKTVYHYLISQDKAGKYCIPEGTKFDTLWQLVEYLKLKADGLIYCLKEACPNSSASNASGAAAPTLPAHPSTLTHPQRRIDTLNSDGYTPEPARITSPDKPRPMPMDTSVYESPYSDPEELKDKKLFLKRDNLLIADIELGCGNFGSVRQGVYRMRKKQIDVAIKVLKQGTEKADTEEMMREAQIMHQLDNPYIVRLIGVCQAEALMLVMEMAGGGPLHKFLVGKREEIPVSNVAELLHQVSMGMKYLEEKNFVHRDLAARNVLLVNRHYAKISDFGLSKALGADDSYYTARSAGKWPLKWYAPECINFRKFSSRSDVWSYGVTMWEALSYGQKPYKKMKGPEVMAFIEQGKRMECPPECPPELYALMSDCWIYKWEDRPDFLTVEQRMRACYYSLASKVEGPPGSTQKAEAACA

[4] = target: kinases (KINOMEscan panel) (Homo sapiens, UniProt Q8IU85); settings: kinase CAMK1D; NEW KINOMEscan
[5] = target: kinases (KINOMEscan panel) (Homo sapiens, UniProt P51957); settings: kinase NEK4; NEW KINOMEscan
[6] = target: kinases (KINOMEscan panel) (Homo sapiens, UniProt P00533, DEL746-750); settings: NEW KINOMEscan
[7] = target: kinases (KINOMEscan panel) (Homo sapiens, UniProt P49137)
[8] = target: kinases (KINOMEscan panel) (Homo sapiens, UniProt Q15759)
[9] = target: T2, kinases (KINOMEscan panel) (Homo sapiens, UniProt O14936); settings: kinase CASK; NEW KINOMEscan
T2 sequence (O14936 1-926): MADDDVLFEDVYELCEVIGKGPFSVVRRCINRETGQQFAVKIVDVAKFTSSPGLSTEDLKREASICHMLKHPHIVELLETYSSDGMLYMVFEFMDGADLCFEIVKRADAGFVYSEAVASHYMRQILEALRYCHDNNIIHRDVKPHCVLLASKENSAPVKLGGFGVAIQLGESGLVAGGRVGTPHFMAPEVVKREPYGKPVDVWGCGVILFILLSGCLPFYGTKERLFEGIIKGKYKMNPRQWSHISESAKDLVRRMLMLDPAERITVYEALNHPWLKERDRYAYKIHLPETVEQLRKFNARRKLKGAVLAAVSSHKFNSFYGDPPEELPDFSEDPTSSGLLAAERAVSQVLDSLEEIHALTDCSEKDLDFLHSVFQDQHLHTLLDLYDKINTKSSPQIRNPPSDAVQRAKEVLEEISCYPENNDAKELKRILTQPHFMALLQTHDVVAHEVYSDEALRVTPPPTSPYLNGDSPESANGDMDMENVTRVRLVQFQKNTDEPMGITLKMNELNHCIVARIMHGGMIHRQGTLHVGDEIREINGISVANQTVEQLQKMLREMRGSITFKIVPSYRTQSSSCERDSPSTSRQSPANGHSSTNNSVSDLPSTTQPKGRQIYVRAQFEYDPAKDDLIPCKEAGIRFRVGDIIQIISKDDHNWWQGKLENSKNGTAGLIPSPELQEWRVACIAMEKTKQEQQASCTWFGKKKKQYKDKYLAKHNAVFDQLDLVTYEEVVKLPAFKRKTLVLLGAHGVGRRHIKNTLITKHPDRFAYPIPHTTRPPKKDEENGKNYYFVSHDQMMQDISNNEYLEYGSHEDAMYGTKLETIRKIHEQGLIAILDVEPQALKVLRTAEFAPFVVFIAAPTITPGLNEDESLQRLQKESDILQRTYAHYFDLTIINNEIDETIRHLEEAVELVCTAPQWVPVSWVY

[10] = target: kinases (KINOMEscan panel) (Homo sapiens, UniProt Q9NYY3); settings: PLK2; NEW KINOMEscan
[11] = target: kinases (KINOMEscan panel) (Homo sapiens, UniProt Q9Y4K4); settings: kinase MAP4K5; NEW KINOMEscan
[12] = target: kinases (KINOMEscan panel) (Homo sapiens, UniProt Q9BQI3)
[13] = target: kinases (KINOMEscan panel) (Homo sapiens, UniProt P42336); settings: kinase PIK3CA; NEW KINOMEscan
[14] = target: kinases (KINOMEscan panel) (Homo sapiens, UniProt P11309); settings: NEW KINOMEscan
[15] = target: kinases (KINOMEscan panel) (Homo sapiens, UniProt Q5S007, G2019S); settings: NEW KINOMEscan
[16] = target: kinases (KINOMEscan panel) (Homo sapiens, UniProt Q13627); settings: NEW KINOMEscan

Sequence of kinases (KINOMEscan panel) (Homo sapiens, UniProt P42336) (P42336 whole entry): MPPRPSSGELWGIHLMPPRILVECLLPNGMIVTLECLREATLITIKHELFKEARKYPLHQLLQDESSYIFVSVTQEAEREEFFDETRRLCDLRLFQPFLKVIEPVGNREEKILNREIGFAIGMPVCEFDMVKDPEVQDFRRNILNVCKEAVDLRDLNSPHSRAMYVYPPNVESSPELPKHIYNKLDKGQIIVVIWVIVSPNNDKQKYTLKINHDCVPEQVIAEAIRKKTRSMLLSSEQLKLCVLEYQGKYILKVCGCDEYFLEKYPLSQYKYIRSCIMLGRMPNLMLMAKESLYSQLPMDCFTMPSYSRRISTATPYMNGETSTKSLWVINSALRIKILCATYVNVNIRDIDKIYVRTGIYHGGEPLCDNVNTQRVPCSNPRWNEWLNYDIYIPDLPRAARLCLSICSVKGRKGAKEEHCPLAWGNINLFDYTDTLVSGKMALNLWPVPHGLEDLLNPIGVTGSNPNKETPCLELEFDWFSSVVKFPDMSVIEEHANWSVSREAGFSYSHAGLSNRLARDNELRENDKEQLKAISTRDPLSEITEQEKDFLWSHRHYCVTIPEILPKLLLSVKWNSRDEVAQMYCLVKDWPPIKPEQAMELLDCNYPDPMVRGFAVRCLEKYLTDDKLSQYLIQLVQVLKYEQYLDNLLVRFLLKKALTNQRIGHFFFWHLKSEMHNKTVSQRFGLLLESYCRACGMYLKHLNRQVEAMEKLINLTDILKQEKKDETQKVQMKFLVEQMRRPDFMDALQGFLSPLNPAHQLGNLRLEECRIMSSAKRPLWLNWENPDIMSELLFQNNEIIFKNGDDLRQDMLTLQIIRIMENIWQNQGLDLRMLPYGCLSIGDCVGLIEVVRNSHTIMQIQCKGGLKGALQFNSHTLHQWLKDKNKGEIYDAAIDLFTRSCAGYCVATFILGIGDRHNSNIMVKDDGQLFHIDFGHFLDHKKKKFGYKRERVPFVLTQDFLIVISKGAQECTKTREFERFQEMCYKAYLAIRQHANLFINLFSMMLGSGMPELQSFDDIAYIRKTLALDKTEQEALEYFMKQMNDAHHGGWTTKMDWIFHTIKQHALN
Sequence of kinases (KINOMEscan panel) (Homo sapiens, UniProt P49137) (P49137 whole entry): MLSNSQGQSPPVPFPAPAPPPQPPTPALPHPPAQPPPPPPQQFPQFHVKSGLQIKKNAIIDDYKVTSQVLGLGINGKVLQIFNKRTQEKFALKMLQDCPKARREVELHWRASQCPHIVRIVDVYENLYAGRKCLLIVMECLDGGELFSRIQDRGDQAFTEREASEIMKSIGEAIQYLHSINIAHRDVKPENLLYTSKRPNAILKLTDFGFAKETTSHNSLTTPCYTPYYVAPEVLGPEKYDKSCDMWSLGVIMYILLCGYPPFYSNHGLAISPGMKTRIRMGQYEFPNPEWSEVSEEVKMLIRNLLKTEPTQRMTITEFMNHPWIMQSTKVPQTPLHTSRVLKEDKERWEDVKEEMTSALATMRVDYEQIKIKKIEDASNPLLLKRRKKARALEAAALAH
Sequence of kinases (KINOMEscan panel) (Homo sapiens, UniProt Q9Y4K4) (Q9Y4K4 whole entry): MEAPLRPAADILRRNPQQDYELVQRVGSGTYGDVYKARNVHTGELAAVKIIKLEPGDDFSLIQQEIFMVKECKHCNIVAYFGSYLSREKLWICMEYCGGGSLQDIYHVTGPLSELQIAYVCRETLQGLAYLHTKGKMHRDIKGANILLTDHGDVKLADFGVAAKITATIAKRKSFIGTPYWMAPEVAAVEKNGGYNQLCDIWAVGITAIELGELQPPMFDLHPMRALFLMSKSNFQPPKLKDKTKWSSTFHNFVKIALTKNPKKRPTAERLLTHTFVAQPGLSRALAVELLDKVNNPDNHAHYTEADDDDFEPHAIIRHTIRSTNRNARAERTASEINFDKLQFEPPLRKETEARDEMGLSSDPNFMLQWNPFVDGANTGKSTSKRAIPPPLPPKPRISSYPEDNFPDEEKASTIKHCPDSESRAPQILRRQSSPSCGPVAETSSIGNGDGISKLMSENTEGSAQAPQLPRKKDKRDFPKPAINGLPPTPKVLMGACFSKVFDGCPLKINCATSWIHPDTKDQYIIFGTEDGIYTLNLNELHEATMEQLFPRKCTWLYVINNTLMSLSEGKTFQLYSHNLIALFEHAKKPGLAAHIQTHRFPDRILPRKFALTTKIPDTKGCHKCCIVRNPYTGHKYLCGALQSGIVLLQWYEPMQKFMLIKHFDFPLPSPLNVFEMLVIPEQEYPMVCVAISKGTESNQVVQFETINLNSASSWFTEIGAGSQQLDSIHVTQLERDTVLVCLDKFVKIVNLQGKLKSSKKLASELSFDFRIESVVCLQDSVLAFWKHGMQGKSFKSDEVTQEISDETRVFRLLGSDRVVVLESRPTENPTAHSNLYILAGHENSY
Sequence of kinases (KINOMEscan panel) (Homo sapiens, UniProt Q9BQI3) (Q9BQI3 whole entry): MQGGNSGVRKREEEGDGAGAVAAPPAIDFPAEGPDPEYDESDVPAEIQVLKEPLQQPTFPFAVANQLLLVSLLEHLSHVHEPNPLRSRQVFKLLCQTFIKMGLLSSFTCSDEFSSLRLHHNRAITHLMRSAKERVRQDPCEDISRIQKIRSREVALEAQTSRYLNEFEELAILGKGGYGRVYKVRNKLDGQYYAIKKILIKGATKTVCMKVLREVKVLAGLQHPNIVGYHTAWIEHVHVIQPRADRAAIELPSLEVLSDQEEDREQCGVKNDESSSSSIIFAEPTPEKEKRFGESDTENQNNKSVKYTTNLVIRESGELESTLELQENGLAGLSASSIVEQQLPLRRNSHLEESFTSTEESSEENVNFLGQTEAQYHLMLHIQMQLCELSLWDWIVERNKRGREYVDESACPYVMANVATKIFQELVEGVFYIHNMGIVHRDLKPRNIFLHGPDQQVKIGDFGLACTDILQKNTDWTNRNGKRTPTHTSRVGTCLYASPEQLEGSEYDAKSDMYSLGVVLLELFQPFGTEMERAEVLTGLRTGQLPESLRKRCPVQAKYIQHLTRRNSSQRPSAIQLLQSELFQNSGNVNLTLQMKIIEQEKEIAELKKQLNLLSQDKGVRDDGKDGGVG
Sequence of kinases (KINOMEscan panel) (Homo sapiens, UniProt Q9NYY3) (Q9NYY3 whole entry): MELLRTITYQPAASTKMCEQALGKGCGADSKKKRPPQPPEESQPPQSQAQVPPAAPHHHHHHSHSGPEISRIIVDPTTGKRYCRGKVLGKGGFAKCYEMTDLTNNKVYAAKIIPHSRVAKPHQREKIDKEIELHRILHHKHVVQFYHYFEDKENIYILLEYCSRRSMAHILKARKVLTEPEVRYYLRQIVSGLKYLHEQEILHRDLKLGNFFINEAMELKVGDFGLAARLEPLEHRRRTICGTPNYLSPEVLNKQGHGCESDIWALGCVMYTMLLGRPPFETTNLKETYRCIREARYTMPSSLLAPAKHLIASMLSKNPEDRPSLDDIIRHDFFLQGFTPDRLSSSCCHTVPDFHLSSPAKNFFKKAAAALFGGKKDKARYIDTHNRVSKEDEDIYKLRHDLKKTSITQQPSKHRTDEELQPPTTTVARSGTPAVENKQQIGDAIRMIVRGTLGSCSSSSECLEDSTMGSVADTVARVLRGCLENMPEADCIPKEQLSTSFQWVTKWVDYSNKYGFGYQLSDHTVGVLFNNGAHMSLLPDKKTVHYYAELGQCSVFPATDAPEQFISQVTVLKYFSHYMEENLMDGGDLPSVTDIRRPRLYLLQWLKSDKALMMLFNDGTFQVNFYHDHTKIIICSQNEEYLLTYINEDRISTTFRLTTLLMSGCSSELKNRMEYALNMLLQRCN
Sequence of kinases (KINOMEscan panel) (Homo sapiens, UniProt P00533, DEL746-750) (P00533 with tags, fused parts or gaps DEL746-750): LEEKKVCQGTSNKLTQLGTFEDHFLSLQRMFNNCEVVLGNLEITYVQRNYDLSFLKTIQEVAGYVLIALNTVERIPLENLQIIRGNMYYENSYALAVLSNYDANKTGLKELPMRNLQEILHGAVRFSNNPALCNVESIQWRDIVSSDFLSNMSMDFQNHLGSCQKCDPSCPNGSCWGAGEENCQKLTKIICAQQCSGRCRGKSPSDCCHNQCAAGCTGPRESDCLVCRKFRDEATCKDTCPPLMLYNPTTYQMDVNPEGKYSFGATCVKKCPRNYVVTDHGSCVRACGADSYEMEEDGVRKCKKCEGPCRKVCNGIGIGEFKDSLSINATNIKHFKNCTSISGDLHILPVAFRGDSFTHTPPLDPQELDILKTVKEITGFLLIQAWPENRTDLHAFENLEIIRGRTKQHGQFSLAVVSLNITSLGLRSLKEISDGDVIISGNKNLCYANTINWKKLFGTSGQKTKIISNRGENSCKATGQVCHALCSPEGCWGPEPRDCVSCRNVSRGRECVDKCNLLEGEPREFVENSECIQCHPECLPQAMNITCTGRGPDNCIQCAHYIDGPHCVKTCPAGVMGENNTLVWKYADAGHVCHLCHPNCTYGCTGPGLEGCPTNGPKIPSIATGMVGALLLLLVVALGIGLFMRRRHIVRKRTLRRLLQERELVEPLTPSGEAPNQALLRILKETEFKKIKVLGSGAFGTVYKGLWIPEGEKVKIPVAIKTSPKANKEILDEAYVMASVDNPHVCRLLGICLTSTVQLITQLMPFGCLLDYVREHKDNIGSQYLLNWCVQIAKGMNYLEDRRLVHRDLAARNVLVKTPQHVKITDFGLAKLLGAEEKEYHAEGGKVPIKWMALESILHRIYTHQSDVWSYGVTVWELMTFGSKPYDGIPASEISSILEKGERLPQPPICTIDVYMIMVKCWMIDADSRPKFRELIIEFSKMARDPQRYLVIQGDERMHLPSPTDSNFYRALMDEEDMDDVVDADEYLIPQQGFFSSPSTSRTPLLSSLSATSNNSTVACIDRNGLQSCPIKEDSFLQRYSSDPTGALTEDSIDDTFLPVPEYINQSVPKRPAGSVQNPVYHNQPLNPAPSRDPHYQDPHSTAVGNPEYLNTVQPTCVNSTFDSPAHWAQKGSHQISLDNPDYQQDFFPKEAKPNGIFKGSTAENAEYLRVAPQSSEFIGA

SMILES | KINOMEscan EPHA2 [1] | KINOMEscan ABL1(T315I)-nonphosphorylated [2] | KINOMEscan ABL1(T315I)-phosphorylated [2] | KINOMEscan ZAP70 [3] | KINOMEscan CAMK1D [4] | KINOMEscan NEK4 [5] | KINOMEscan EGFR(E746-A750del) [6] | KINOMEscan MAPKAPK2 ([7]; kinase MAPKAPK2, NEW KINOMEscan) | KINOMEscan MAPK11/p38-beta [8] | KINOMEscan CASK [9] | KINOMEscan PLK2 [10] | KINOMEscan MAP4K5 [11] | KINOMEscan ElF2AK2/EIF2AK1 [12] | KINOMEscan PIK3CA [13] | KINOMEscan PIM1 [14] | KINOMEscan LRRK2(G2019S) [15] | KINOMEscan DYRK1A [16] | KINOMEscan MAPKAPK2 [7]
Cc1cccc(-c2nc(Nc3ccc4nn(C)cc4c3)c3ccccc3n2)n1 [NK167] | 0 | 0 | 4 | 14 | 0 | 0 | 15 | 0 | 12 | 0 | 0 | 0 | 0 | 0 | 2 | 39 | 0 | 
Cc1cccc(-c2nc(N(C)c3ccc4ncsc4c3)c3ccccc3n2)n1 [NK-161] | 2 | 0 | 3 | 20 | 0 | 5 | 21 |  | 1 | 0 | 0 | 0 | 1 | 0 | 29 | 31 | 20 | 0
